Tests used:
[1] = system: Beet Curly Top Virus (BCTV); test: Evaluation of Beet Curly Top Virus on tomatoes (field trial, seedlings treated before transplantation); assay type: in vivo; conditions: tomato var Heinz 8504; seedlings sprayed with 4 gm ai/ha two days before transplant; rated approximately 8 weeks later; P = 0.065
Protocol: In the instant example, symptoms of infection with Beet Curly Top Virus (BCTV) on tomatoes were evaluated. Plants were either treated with a composition comprising 1-MCP or left untreated.
Tomato seedlings (var Heinz 8504) with 4 leaves (approximately 4 inches tall) in seedling trays were either i) sprayed with a treatment of 1-MCP (4 gm ai/ha) or ii) left untreated. Contacting the plants was achieved using a pressurized backpack spraying system containing 1-MCP and water. Two days later, the tomato seedlings were transplanted into the open field near Five Points, Calif. following normal commercial tomato production practices.
Throughout the growing season, normal field production practices were performed, including fertilization, watering, and pest control (e.g., insecticide, fungicide, and herbicide) applications uniformly to the entire trial area. Approximately eight (8) weeks later, when the tomatoes had grown to approximately 2 feet tall, an infestation of Beet Curly Top Virus (BCTV) was noted. Observations were taken on percentage of plants infected with BCTV in treated and untreated plots.

[2] = system: Downy Mildew (Pseudoperonospora cubensis); test: Evaluation of Downy Mildew on cucumbers (field trial); assay type: in vivo
Protocol: In the instant example, symptoms of fungal infection with Downy Mildew (Pseudoperonospora cubensis) on cucumbers were evaluated. Plants were either treated with a composition comprising 1-MCP or left untreated.
Cucumber seedlings with approximately 3 leaves (approximately 3 inches tall) in seedling trays were either i) sprayed with 1-MCP (40 g ai/ha) or ii) left untreated. Contacting the plants was achieved using pressurized backpack sprayer. Two days later, the seedlings were transplanted into the open field near Futian Village, Wangsi Township, Dayi County, Sichuan, China, following normal commercial production practices.
(§1) Throughout the growing season, normal field production practices were performed, including fertilization, watering, and pest control (e.g., insecticide, fungicide, and herbicide) applications uniformly to the entire trial area. Approximately 5-6 weeks later, the percent disease severity ratings were made in each plot of plants that were treated with 1-MCP and the corresponding plot of plants that were untreated.

[3] = system: Tomato Yellow Leaf Curl Virus (TYLCV); test: Evaluation of Tomato Yellow Leaf Curl Virus on tomatoes (field trial); assay type: in vivo, Tomato Yellow Leaf Curl Virus (Begomovirus Geminiviridae); conditions: tomato var Florida 47; seedlings treated with 50 ppm ai by watering can three days before transplant; rated approximately 9 weeks later; P = 0.081
Protocol: In the instant example, symptoms of infection with Tomato Yellow Leaf Curl Virus (TYLCV) on tomatoes were evaluated. Plants were either treated with a composition comprising 1-MCP or left untreated.
(§2) Tomato seedlings (var Florida 47) with approximately 4 leaves (approximately 4 inches tall) in seedling trays were either i) sprayed with 1-MCP (50 ppm ai) or ii) left untreated. Contacting the plants was achieved using a watering can containing 1-MCP and water. Three days later, the seedlings were transplanted into the open field near Myakka City, Fla. following normal commercial tomato production practices.
(§3) Throughout the growing season, normal field production practices were performed, including fertilization, watering, and pest control (e.g., insecticide, fungicide, and herbicide) applications uniformly to the entire trial area. Approximately 9 weeks later, when the tomatoes had grown to approximately 3 feet tall, an infestation of Tomato Yellow Leaf Curl Virus was observed. In each plot of plants that were treated with 1-MCP, and the corresponding plot of plants that were untreated, counts were made of the number of plants showing symptoms of infection by TYLCV out of the total of 54 plants per plot.

[4] = system: Root Rot (Pythium sp.); test: Evaluation of Root Rot on peppers (field trial); assay type: in vivo
Protocol: In the instant example, symptoms of fungal infection with Root Rot (Pythium sp.) on peppers were evaluated. Plants were either treated with a composition comprising 1-MCP or left untreated.
Pepper seedlings with approximately 3 leaves (approximately 4-5 inches tall) in seedling trays were either i) sprayed with 1-MCP (1-10 g ai/ha) or ii) left untreated. Contacting the plants was achieved using a watering can containing a 50 ppm solution of 1-MCP. Three days later, the seedlings were transplanted into the open field near Clinton, N.C. following normal commercial pepper production practices.
Throughout the growing season, normal field production practices were performed, including fertilization, watering, and pest control (e.g., insecticide, fungicide, and herbicide) applications uniformly to the entire trial area.

[5] = system: Bacterial Spot (Xanthomonas euvesicatoria and Xanthomonas perforans, Xanthomonas vesicatoria, and Xanthomonas gardneri); test: Evaluation of Bacterial Spot on tomatoes (field trial); assay type: in vivo; conditions: tomato var Charger; seedlings sprayed with 1-40 g ai/ha two days before transplant; rated approximately 3 weeks later; p = 0.04
Protocol: In the instant example, symptoms of Bacterial Spot bacterial infection (Xanthomonas euvesicatoria and Xanthomonas perforans=[Xanthomonas axonopodis (syn. campestris) pv. vesicatoria], Xanthomonas vesicatoria, and Xanthomonas gardneri) on tomatoes were evaluated. Plants were either treated with a composition comprising 1-MCP or left untreated.
(§4) Tomato Seedlings (var Charger) with approximately 4 leaves (approximately 4-5 inches tall) in seedling trays were either i) sprayed with 1-MCP (1-40 g ai/ha) or ii) left untreated. Contacting the plants was achieved using pressurized backpack sprayer. Two days later, the seedlings were transplanted into the open field near Thonotosassa, Fla. following normal commercial tomato production practices.
as §3, with “3” for “9”, “1½” for “3”, “tall” for “tall,”, “Bacterial Spot” for “Tomato Yellow Leaf Curl Virus”, “disease severity assessments” for “counts”, “made.” for “made of the number of plants showing symptoms of infection by TYLCV out of the total of 54 plants per plot.”

[6] = system: Target Spot (Corynespora cassiicola); test: Evaluation of Target Spot infection on tomatoes (field trial); assay type: in vivo; conditions: tomato var HM 1823; seedlings treated with 50 ppm ai by watering can three days before transplant; rated approximately 9 weeks later; P = 0.003
Protocol: In the instant example, symptoms of Target Spot […] infection (Corynespora cassiicola) on tomatoes were evaluated. Plants were either treated with a composition comprising 1-MCP or left untreated.
as §2, with “HM 1823)” for “Florida 47)”
as §3, with “Target Spot” for “Tomato Yellow Leaf Curl Virus”, “Target Spot” for “TYLCV”

[7] = system: Early Blight (Alternaria tomatophila); test: Evaluation of Early Blight on tomatoes (field trial); assay type: in vivo
Protocol: In the instant example, symptoms of fungal infection with Early Blight (Alternaria tomatophila) on tomatoes were evaluated. Plants were either treated with a composition comprising 1-MCP or left untreated.
as §4, with “seedlings” for “Seedlings”, “(1-10” for “(1-40”
as §1, with “Beginning approximately 3 weeks later, and continuing approximately 7 weeks later and approximately 11” for “Approximately 5-6”

CC1=CC1 [1-MCP, 1-methylcyclopropene]
Percentage of BCTV Infested Plants [1]: 4% | percent disease (Downy Mildew) severity rating ([2]; cucumber seedlings sprayed with 40 g ai/ha two days before transplant, rated approximately 5-6 weeks later, p = 0.08): 18% | reduction of percent disease (Downy Mildew) severity ratings versus untreated ([2]; cucumber, approximately 5-6 weeks later): approximately 47% | Mean (plants showing symptoms of infection by TYLCV out of 54 plants per plot) [3]: 11% | mortality and stunting of plants caused by Pythium ([4]; pepper seedlings treated with 1-10 g ai/ha (watering can, 50 ppm solution) three days before transplant, versus untreated): clearly reduced the mortality and stunting of plants | plant appearance and Pythium pressure compared to untreated controls ([4]; pepper, two weeks after transplantation): slightly larger, darker green, and not as affected by Pythium pressure | Bacterial Spot disease severity assessment [5]: 4% | Percentage of Infected Plants (Target Spot) [6]: 19% | reduction of average percent disease severity ratings for Early Blight versus untreated ([7]; across the three rating dates (approximately 3, 7, 11 weeks)): approximately 30% | average percent disease severity rating for Early Blight ([7]; tomato var Charger, seedlings sprayed with 1-10 g ai/ha two days before transplant, average across approximately 3, 7 and 11 weeks later, p = 0.09): 27.6%
